“Also recorded” adds a separate entry of the source. Where two headings read alike, the source gives them in different places.

One series relates to CutC. Also noted: method as in PMID 30082863. The following applies: irreversible covalent bond in the CutC catalytic site; cited from earlier work.
The target of series [1] is T1, CntA (Acinetobacter baumannii, UniProt D0C9N6).
T1 construct: made in house; host or cells: Escherichia coli BL21(DE3)pLysS
T1 sequence (D0C9N6 1-371): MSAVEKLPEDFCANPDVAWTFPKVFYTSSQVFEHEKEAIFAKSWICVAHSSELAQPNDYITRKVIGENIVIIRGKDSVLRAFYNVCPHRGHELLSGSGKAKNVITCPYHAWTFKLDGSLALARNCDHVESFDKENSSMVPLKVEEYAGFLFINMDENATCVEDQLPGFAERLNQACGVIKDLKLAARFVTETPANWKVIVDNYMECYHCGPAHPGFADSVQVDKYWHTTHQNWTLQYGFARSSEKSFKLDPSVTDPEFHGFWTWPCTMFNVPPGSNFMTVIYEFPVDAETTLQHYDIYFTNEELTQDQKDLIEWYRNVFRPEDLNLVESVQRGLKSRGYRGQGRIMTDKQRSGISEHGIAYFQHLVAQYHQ
In words: Inhibitory IC50 determination against CntA (UV-visible enzyme assay). Format: biochemical. The method, then:
(§1) All activity assays were performed on a BMG FLOUstar Omega 96-well plate reader, set at wavelength 340 nm with a sample volume of 200 μl. The assay comprised combining mixture A 60 μg CntA and 60 μg CntB with mixture B 0.25 mM L-carnitine and 0.25 mM NADH in a 10 mM Hepes buffer, pH 7.6 with 250 mM NaCl and 0.5 mM TCEP. […] The reactions were measured for 5 min recording the linear decrease of signal at 340 nm for NADH oxidation. The slope of the line was measured between 60 and 120 s to yield the rate.
Compounds in the Pathogen Box (https://www.mmv.org/mmv-open/pathogen-box/about-pathogen-box) were received as 10 mM stocks dissolved in dimethylsulfoxide (DMSO). The compounds were added such that the final concentration was 50 μM in the 200-μl reaction. As per the “UV-visible enzyme assays” methodology above, the protein in mixture A was incubated with inhibitor compounds for 20 min before commencing the assay.
[…]. For each concentration, four replicates were carried out. IC50 values were determined using a built-in “Dose Response Inhibition” – [Inhibitor] versus response model in Prism 8 for macOS v8.2.0.

Series [2] has as its system TMA production in A. baumannii cells. In words: Evaluation of inhibitors in A. baumannii cell culture (TMA production from carnitine). In kind it is cell-based, Acinetobacter baumannii. The note with it: inhibitor 200 μM; carnitine 1 mM; 37 °C, 1 h; N = 3. As for the experimental part:
A. baumannii cells were cultured overnight in the M9 minimal media at 37 °C with 10 mM L-carnitine as the sole carbon source. The cells were then collected by centrifugation and washed twice in a buffer containing 10 mM Hepes, 1 mM NaCl (pH 7.6). After wash, the cells were resuspended in the same buffer to a density of OD600 of 0.4. […]. These cells with appropriate treatments were incubated at 37 °C for 1 h. The supernatant was then obtained by filtering through a 0.2-μm filter and analyzed by ion chromatography by quantifying TMA production and carnitine degradation as described previously ([13]).

Series [3] concerns the target T1, CntA. Description: Substrate profiling of carnitine analogs with CntA (structure–activity relationship). The note with it: substrate analogs tested as CntA substrates. Format: biochemical. As for the experimental part: as §1
Substrate in series [4]: CCCC[N+](C)(C)C
Description: Michaelis–Menten kinetics of CntA (UV-visible NADH oxidation assay). The note with it: other: substrate of CntA; n = 4; pH 7.6. Format: biochemical, Acinetobacter baumannii. The method, then: as §1
(§2) Michaelis–Menten kinetic parameters were derived using the UV-visible enzyme assays methodology above. Substrate concentrations were varied from a top concentration of 2 mM and decreasing in a twofold manner for 10 successive dilutions. Observed rates were obtained from four independent measurements and fitted to a nonlinear regression Michaelis–Menten model in Prism 8 for macOS v8.2.0.

Substrate in series [5]: C[N+](C)(C)CC(O)CC(=O)[O-]
The description is as above. Format: biochemical, Acinetobacter baumannii. The note with it: other: substrate of CntA; n = 4; pH 7.6. As for the experimental part: as §1, §2

Substrate in series [6]: C[N+](C)(C)CCCC(=O)[O-]
Described as above. The note with it: other: substrate of CntA; n = 4; pH 7.6. Format: biochemical, Acinetobacter baumannii. The method, then:
as §1, §2

Substrate in series [7]: C[N+](C)(C)NCCC(=O)[O-]
Described as above. The note with it: other: substrate of CntA; n = 4; pH 7.6. Format: biochemical, Acinetobacter baumannii. The method, then:
as §1, §2

For orientation: EC50 means the concentration that produces a half-maximal response. Regarding `C[N+](C)(CF)CCO` [FMC, N-(fluoromethyl)-2-hydroxy-N,N-dimethylethan-1-aminium], in the series on CutC, the EC50 is 0.056 µM.

The IC50 is the concentration needed to halve the response being measured. Consider `c1csc(-c2cnc3sc(NCC4CCOCC4)nn23)c1` [MMV1, N-[(oxan-4-yl)methyl]-5-(thiophen-2-yl)imidazo[2,1-b][1,3,4]thiadiazol-2-amine], for which, on CntA [1], it took 5.8 µM to reach half-maximal inhibition (IC50). Further, the “Effect on TMA formation from carnitine in A. baumannii culture” value in series [2] is on record as “did not reduce TMA production; also recorded: did not inhibit TMA formation”.

For `Brc1cncc(-c2cc(NCCCn3ccnc3)nc(-c3ccccc3)n2)c1` [MMV3, 6-(5-bromopyridin-3-yl)-N-[3-(1H-imidazol-1-yl)propyl]-2-phenylpyrimidin-4-amine], half-maximal inhibition against CntA [1] (IC50) was put at 1.1 µM. Further, the “Effect on TMA formation from carnitine in A. baumannii culture” value in series [2] is “significant reduction; also recorded: almost completely inhibited TMA formation”.

Consider `N#CS` [SCN, thiocyanate], for which the IC50 on CntA [1] (dose response, N=3, read-out: IC50 (inhibition of CntA activity)) came out at 35000 µM.

`C[N+](C)(C)CC(O)CC(=O)[O-]` (centres unmarked) [compound 1, Carnitine]: the “Oxidation by CntA (activity as substrate)” value (from here on “Oxidation by CntA”) at CntA [3] is reported as “oxidizing”.

As to `C[N+](C)(C)CCCC(=O)[O-]` [compound 2, γ-butyrobetaine], the “Oxidation by CntA” value at CntA [3] is reported as “oxidizing”.

As to `C[N+](C)(C)NCCC(=O)[O-]` [compound 3, Meldonium], on CntA [3], the “Oxidation by CntA” value was “can also oxidize”.

Turning to `CCCC[N+](C)(C)C` [compound 4, (1-Butyl)Trimethylammonium], the “Oxidation by CntA” value at CntA [3] is “can also oxidize”.

B1: CntA (Acinetobacter baumannii ATCC 19606 = CIP 70.34 = JCM 6841) (protein)
chain: T1 sequence (D0C9N6 1-371)
notes: made in house; host or cells: Escherichia coli BL21(DE3)pLysS
B1: the Vmax was 30.1 (± 3.4) nmol/min/mg in series [4], 59.0 (± 3.1) nmol/min/mg in series [5], 76.06 (± 1.6) nmol/min/mg in series [6] and 43.8 (± 1.4) nmol/min/mg in series [7].

These data come from paper PMC7948474, “Structural basis of carnitine monooxygenase CntA substrate specificity, inhibition, and intersubunit electron transfer” (The Journal of Biological Chemistry, 2020).
